Inconclusive results and toxic doses are left out. How the source made its calls: active means survival T/C of 150% or more; inactive means T/C below 125% in these data.
Tested on: BDF1 mice, B16 melanoma ip, median survival T/C
Assay: NCI In Vivo Anticancer Drug Screen. Data for tumor model B16 Melanoma (intraperitoneal) in B6D2F1 (BDF1) mice
Conditions: endpoint: median survival time, higher = longer survival
How it was run: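 Tumor-bearing mice received test compound or vehicle. Survival or tumor size was then measured in both groups. The treated-group figure was divided by the control-group figure.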

[1] = dose: 100.0 mg/kg/injection, schedule: Q01DX009 (ip), vehicle: Klucel (hydroxypropylcellulose) (HPC)
[2] = dose: 200.0 mg/kg/injection, schedule: Q01DX009 (ip), vehicle: Klucel (hydroxypropylcellulose) (HPC)
[3] = dose: 200.0 mg/kg/injection, schedule: Q01DX009 (ip), vehicle: saline with Tween-80
[4] = dose: 400.0 mg/kg/injection, schedule: Q01DX009 (ip), vehicle: saline with Tween-80
[5] = dose: 100.0 mg/kg/injection, schedule: Q01DX009 (ip), vehicle: saline with Tween-80

Measured: T/C

CC1C[N-]CC(C)C1.CC1C[N-]CC(C)C1.CC1C[N-]CC(C)C1.CC1C[N-]CC(C)C1.[Cl][Rh][Cl] (stereo not drawn)
inactive: dose: 1.5 mg/kg/injection, schedule: Q01DX009 (ip), vehicle: saline with Tween-80 91 % of control | dose: 3.0 mg/kg/injection, schedule: Q01DX009 (ip), vehicle: saline with Tween-80 107 % of control | dose: 3.0 mg/kg/injection, schedule: Q01DX009 (ip), vehicle: saline 116 % of control | dose: 6.0 mg/kg/injection, schedule: Q01DX009 (ip), vehicle: saline with Tween-80 93 % of control | dose: 6.0 mg/kg/injection, schedule: Q01DX009 (ip), vehicle: saline 116 % of control

C=CCNC(=S)Nc1ccc(C)cc1
inactive: dose: 50.0 mg/kg/injection, schedule: Q01DX009 (ip), vehicle: Klucel (hydroxypropylcellulose) (HPC) 100 % of control | [1] 93 % of control | [2] 90 % of control

CCOC(=O)C(Br)C(=O)OCC
inactive: dose: 0.58 mg/kg/injection, schedule: Q04DX003 (ip), vehicle: saline 97 % of control | dose: 1.17 mg/kg/injection, schedule: Q04DX003 (ip), vehicle: saline 100 % of control | dose: 2.34 mg/kg/injection, schedule: Q04DX003 (ip), vehicle: saline 97 % of control | dose: 4.68 mg/kg/injection, schedule: Q04DX003 (ip), vehicle: saline 93 % of control

CC(C)C(Br)C(=O)NCC(=O)NCC(=O)O (stereo not drawn)
inactive: [3] 91 % of control | [4] 87 % of control

CSCCC(NC(=O)CN(C)C(=O)OCc1ccccc1)C(=O)O (stereo not drawn)
inactive: dose: 50.0 mg/kg/injection, schedule: Q01DX009 (ip), vehicle: saline with Tween-80 100 % of control | [5] 100 % of control

CCOC(=O)c1ccc(NCC#N)cc1
inactive: [5] 94 % of control | [3] 97 % of control | [4] 105 % of control

CCOc1cc([N+](=O)[O-])c(OCC)cc1Cl
inactive: [5] 94 % of control | [3] 97 % of control | [4] 96 % of control

CCCCCCCCC(=O)CCCCCC
inactive: [1] 100 % of control | [2] 96 % of control | dose: 400.0 mg/kg/injection, schedule: Q01DX009 (ip), vehicle: Klucel (hydroxypropylcellulose) (HPC) 104 % of control

CCCCCCCCCCCCCCCCc1ccc(CCCC(=O)O)cc1
inactive: dose: 25.0 mg/kg/injection, schedule: Q01DX009 (ip), vehicle: carboxymethylcellulose (CMC) 101 % of control | dose: 50.0 mg/kg/injection, schedule: Q01DX009 (ip), vehicle: carboxymethylcellulose (CMC) 103 % of control | dose: 100.0 mg/kg/injection, schedule: Q01DX009 (ip), vehicle: carboxymethylcellulose (CMC) 95 % of control

CC(N)(Cc1ccc(O)c(O)c1)C(=O)O (stereo not drawn)
inactive: dose: 50.0 mg/kg/injection, schedule: Q01DX009 (ip), vehicle: saline 115 % of control | dose: 100.0 mg/kg/injection, schedule: Q01DX009 (ip), vehicle: saline 100 % of control | dose: 200.0 mg/kg/injection, schedule: Q01DX009 (ip), vehicle: saline 107 % of control | dose: 400.0 mg/kg/injection, schedule: Q01DX009 (ip), vehicle: saline 110 % of control

CC1=CC(O)C(O)C2(C)C1CC(=O)C13COC4OC(CC1C4=O)C(O)C32 (stereo not drawn)
inactive: dose: 0.4 mg/kg/injection, schedule: Q01DX009 (ip), vehicle: saline with Tween-80 106 % of control | dose: 0.8 mg/kg/injection, schedule: Q01DX009 (ip), vehicle: saline with Tween-80 110 % of control | dose: 1.6 mg/kg/injection, schedule: Q01DX009 (ip), vehicle: saline with Tween-80 113 % of control | dose: 3.2 mg/kg/injection, schedule: Q01DX009 (ip), vehicle: saline with Tween-80 110 % of control | dose: 5.0 mg/kg/injection, schedule: Q01DX009 (ip), vehicle: saline with Tween-80 90 % of control | dose: 10.0 mg/kg/injection, schedule: Q01DX009 (ip), vehicle: saline with Tween-80 91 % of control

Reference: PubChem BioAssay AID192 (DTP/NCI, 2004)
